From patent publication US20240301023A1 (priority 2020, published 2024)
Where two headings read alike, the source gives them in different places. Square brackets hold non-standard residues; d marks the D form. Peptide text beside a SMILES is read from it. Phe(4-NO2) = N[C@@H](Cc1ccc([N+](=O)[O-])cc1)C(=O)O; Phe(4-Cl) = N[C@@H](Cc1ccc(Cl)cc1)C(=O)O; NMeR = CN[C@@H](CCCNC(=N)N)C(=O)O; Aoc = NCCCCCCCC(=O)O; Sar = CNCC(=O)O

Key:
[1] = test system: Freund's Complete Adjuvant model of inflammatory nociception; settings: rat, in vivo
[2] = target: Kappa opioid receptor (KOR) (Homo sapiens, UniProt P41145); assay: cell-based; type: cell-based
[3] = target: Delta opioid receptor (DOR) (Homo sapiens, UniProt P41143); assay: cell-based; type: cell-based
Mu opioid receptor (MOR) = Mu opioid receptor (MOR) (Homo sapiens, UniProt P35372); assay: cell-based; type: cell-based
[4] = target: T1, bovine pancreatic trypsin (Bos taurus, UniProt P00760); assay: Stability in bovine trypsin; type: in vitro ADME; settings: bovine pancreatic trypsin 2.5 μg/mL, NH4HCO3 buffer pH 8-8.5, 37° C., 100 μM peptide; for half-life at 100 µM: bovine pancreatic trypsin solution
T1 construct: from tissue; host or cells: bovine pancreas
T1 sequence (P00760 24-246): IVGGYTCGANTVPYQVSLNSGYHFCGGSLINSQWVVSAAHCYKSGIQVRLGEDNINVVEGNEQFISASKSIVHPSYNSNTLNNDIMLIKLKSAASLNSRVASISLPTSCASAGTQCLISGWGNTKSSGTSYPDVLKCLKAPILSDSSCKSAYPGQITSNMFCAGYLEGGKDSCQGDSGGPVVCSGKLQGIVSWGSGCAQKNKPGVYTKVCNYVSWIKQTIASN
Experimental: The stability of the peptides was analysed in typsin, plasma and water. Stability of linear peptides is generally low due to rapid degradation by endogenous peptidases and proteases. While stability in bodily fluids is important, absolute stability may not be prudent or desirable due to potential build-up in vivo leading to adverse side effects, and/or hazards to the environment and recirculation of exceptionally stable compounds in waterways. Thus, compounds that are extremely stable in either plasma or typsin are not generally considered “drug-like”.
Stability in bovine trypsin was analysed for SEQ ID Nos. 2 to 7 and 11 to 17. Peptides were added to trypsin solution (bovine pancreatic trypsin 2.5 μg/mL in NH4HCO3 buffer, pH approximately 8-8.5, 37° C.) in a water bath with final concentrations of 100 μM peptide. A 50 μL sample was taken immediately and precipitated in 150 μL of cold acetonitrile (9:1 acetonitrile:water) This sample became the baseline, or t=0 min sample. The trypsin peptide mixture was immediately returned to the water bath and subsequent 50 μL samples were taken at 5, 10, 15, 30, 60 and 120 min. At each time point, the 50 μL sample was collected and immediately added to cold acetonitrile (ACN). Each sample was vortexed for 30 sec and then centrifuged at room temperature (RT) (13K rpm, 5 min). 150 μL of the supernatant was taken and directly place in a glass HPLC vial for LCMS analysis.

Stability in rat plasma = type: in vitro ADME; settings: both sexes, Wistar, 37° C., 100 μM peptide
Experimental: Stability in plasma was assessed in rat plasma. Plasma was collected in-house from adult mixed-gender Wistar rats, prepared using 2% EDTA as per standard practice. Peptides were added to the rat plasma samples at 37° C. in a water bath with final concentrations of 100 μM (1:9 peptide in water:plasma). The assay was then carried out in the same manner as the assay in bovine trypsin.

Stability in water = type: physicochemical; settings: ultra-pure Milli-Q water
Experimental: Stability in water was carried out by incubating each candidate in ultra-pure, Milli-Q water (Millipore Corporation). Again, volumes, times and preparation protocols were exactly as described above in plasma stability method above.

KOR [5] = target: T2, KOR (Homo sapiens, UniProt P41145); assay: biochemical; type: binding
KOR [6] = target: T2, KOR; assay: cell-based; type: cell-based
KOPr = KOPr (Homo sapiens, UniProt P41145); type: cell-based
[7] = Pharmacokinetic parameters after i.v. administration in rats; type: in vivo; settings: rat; for half-life / clearance / Vd: iv, dose 0.3 mg/kg (SEQ ID NO. 19), 1 mg/kg (SEQ ID NO. 24); for clearance: read-out: CLtotal; for Vd: read-out: Vdss; for opioid-like adverse effects (e.g. respiratory depression, sedation): 0.3 mg/kg (SEQ ID NO 19), 1 mg/kg (SEQ ID NO 24)
Description: Methods are as previously reported (Hill et al., ACS Med. Chem. Lett. 2014, 5(10), 1148-51; Lohman et al., Chem. Commun. (Camb), 2019, 55(89), 13362-13365; Neilsen et al., Org. Lett., 2012, 14(22), 5720-3; Neilsen et al, Chembiochem, 2015, 16(16), 2289-93; Justyna et al., Current Drug Targets, 2013, 14(7), 798-816)). Rats were surgically implanted with a jugular vein catheter (sterile polyethylene, o.d. 0.96 mm i.d. 0.58 mm, Microtube Extrusions, Aust.) and allowed to recover overnight. Baseline blood samples (t=0) were taken prior to peptide administration directly from the indwelling jugular vein catheter. Peptide was administered directly via the catheter (i.v route), followed by a 200 μL chaser volume of heparinised saline (20 U/mL) to flush the line. Further blood samples (200 μL/sample) were collected directly from the intravenous catheter at t=1, 5 15, 30, 60, 90 120 as 180 minutes post-administration. Volumes taken were replaced with heparinised saline to avoid hypovolaemia. Blood samples were immediately centrifuged (14 k rpm, 5 min) and plasma supernatant snap frozen on dry ice for later processing. Plasma samples were thawed and diluted 1 in 4 acetonitrile, vortexed, sonicated and centrifuged. Supernatants were transferred to HPLC vials for LCMS analysis.
A Triple Quad Mass-Spectrometer (model 6460, Agilent Technologies) coupled to a Bidentate C18 HPLC column (Cogent, 100 Å, 4 μM) was used to analyse all samples. Separations were carried out using a binary solvent gradient. A Multiple Reaction Monitoring (MRM) protocol was developed for each individual peptide to maximise sensitivity of the Mass-spec and optimise the Limit of Detection (LOD) from a serially diluted standard curve, performed in both acetonitrile solvent and neat rat plasma.
Samples were analysed using MassHunter Software packages, and area under the curve (AUC) was measured for each peak of interest in the MRM, as a direct measure of concentration of compound ions in the sample. AUCs were converted to plasma concentrations (Cp; μg/mL and μM) using the standard curves generated in plasma. Data was analysed using MS Excel software. A two compartment model was adopted to determine the pharmacokinetic properties of each peptide in the rat. The first phase describes the distribution throughout the circulatory compartment, and the second phase describes the elimination/steady state concentration in plasma/tissue. Plasma half-life, volume of distribution and clearance were determined from the steady-state elimination phase.

Chain of Delta opioid receptor (DOR) (P41143 whole entry): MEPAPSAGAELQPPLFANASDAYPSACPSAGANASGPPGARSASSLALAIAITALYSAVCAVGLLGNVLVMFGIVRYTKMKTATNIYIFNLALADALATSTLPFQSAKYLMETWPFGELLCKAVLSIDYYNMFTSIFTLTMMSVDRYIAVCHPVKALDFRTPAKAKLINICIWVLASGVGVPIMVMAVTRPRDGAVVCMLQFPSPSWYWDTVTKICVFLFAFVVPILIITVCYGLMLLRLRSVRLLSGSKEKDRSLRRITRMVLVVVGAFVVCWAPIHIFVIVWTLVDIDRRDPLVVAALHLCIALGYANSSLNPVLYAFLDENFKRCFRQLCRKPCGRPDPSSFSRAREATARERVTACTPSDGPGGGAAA
Chain of Mu opioid receptor (MOR) (P35372 whole entry): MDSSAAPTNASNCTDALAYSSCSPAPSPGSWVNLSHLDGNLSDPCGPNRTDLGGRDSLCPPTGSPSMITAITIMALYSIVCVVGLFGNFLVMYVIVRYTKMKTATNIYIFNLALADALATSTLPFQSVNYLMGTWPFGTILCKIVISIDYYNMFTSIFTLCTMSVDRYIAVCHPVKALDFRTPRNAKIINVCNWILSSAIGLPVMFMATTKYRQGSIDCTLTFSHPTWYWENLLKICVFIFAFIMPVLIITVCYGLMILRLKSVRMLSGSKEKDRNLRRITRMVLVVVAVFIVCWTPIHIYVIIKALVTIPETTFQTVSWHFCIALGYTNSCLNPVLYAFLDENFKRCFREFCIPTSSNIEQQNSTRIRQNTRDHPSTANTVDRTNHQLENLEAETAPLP
T2 sequence (P41145 whole entry): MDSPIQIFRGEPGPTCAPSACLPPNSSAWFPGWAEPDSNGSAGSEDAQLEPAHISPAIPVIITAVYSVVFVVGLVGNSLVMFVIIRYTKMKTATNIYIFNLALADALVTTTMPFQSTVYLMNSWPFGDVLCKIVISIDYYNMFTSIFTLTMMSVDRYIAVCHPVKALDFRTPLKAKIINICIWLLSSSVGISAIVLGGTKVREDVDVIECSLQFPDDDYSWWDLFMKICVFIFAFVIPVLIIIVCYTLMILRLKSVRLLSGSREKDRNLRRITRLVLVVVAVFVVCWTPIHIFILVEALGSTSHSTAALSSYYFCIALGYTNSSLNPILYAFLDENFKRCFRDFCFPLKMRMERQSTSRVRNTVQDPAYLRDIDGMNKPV
Chain of KOPr (P41145 whole entry): as above
Chain of Kappa opioid receptor (KOR) (P41145 whole entry): as above

Row | SMILES | cAMP assay KOR 1 μM [2] | cAMP assay KOR 10 μM [2] | EC50 [3] [nM] | cAMP assay DOR 1 μM [3] | cAMP assay DOR 10 μM [3] | EC50 (Mu opioid receptor (MOR)) [nM] | cAMP assay MOR 1 μM (Mu opioid receptor (MOR)) | cAMP assay MOR 10 μM (Mu opioid receptor (MOR)) | half-life at 100 µM (Stability in rat plasma) [h] | half-life at 100 µM (Stability in water) [h] | cAMP activity in the presence of naloxone, KOR cells [2] | KOR desensitisation (change of cAMP maximal response after pre-treatment) (KOR [6]) | bias factor (β) relative to U50488H (KOPr) | pERK1/2 activity (KOPr) | other results
1 | CN1CC[C@]23c4c5ccc(O)c4O[C@H]2[C@@H](O)C=C[C@H]3[C@H]1C5 [Morphine, reference compound] |  |  |  |  |  |  |  |  |  |  |  |  |  |  | paw withdrawal threshold in the contralateral (uninflamed, untreated) paw at 120 minutes compared to baseline [1]: significantly reduced
2 | CC(C)C[C@H](NC(=O)[C@H](Cc1ccccc1)NC(=O)CN(C)C(=O)[C@@H](N)Cc1ccc(O)cc1)C(=O)N[C@@H](CCCNC(=N)N)C(=O)N[C@@H](CCCNC(=N)N)C(N)=O [SEQ ID NO. 2, NH2-Tyr-Sar-Phe-Leu-Arg-Arg-NH2] (H-Y[Sar]FLRR-NH2) | 21.65 | 32.41 | > 10000 | −0.47 | 21.96 | 6700 | −2.5 | 12.41 | 1.61 | > 16.7 |  |  |  |  | half-life at 100 µM [4]: 0.03 h
3 | CC(C)C[C@H](NC(=O)[C@H](Cc1ccc([N+](=O)[O-])cc1)NC(=O)CN(C)C(=O)[C@@H](N)Cc1ccc(O)cc1)C(=O)N[C@@H](CCCNC(=N)N)C(=O)N[C@H](CCCNC(=N)N)C(N)=O [SEQ ID NO. 4, NH2-Tyr-Sar-(4-NO2)Phe-Leu-Arg-DArg-NH2] (H-Y[Sar][Phe(4-NO2)]LR[dR]-NH2) | 34.93 | 40.29 |  | −0.75 | 2.04 |  | 0.17 | 2.52 | 1.18 |  | significantly inhibited | no sign of desensitisation | bias towards cAMP | failed to show any pERK activity | EC50 [2]: 8.4 nM; Half Life Trypsin [4]: 0.257 h; IC50 (KOR [5]; read-out: IC50): 30.2 nM; Ki (KOR [5]; read-out: Ki): 2.8 nM; Area under the curve (AUC) efficacy compared to U50488H [1]: significantly better efficacy than U50488H
4 | CC(C)C[C@H](NC(=O)[C@H](Cc1ccc([N+](=O)[O-])cc1)NC(=O)CN(C)C(=O)[C@@H](N)Cc1ccc(O)cc1)C(=O)N(C)[C@@H](CCCNC(=N)N)C(=O)N(C)[C@@H](CCCNC(=N)N)C(N)=O [SEQ ID NO. 19, NH2-Tyr-Sar-(4-NO2)Phe-Leu-NMA-NMA-NH2] (H-Y[Sar][Phe(4-NO2)]L[NMeR][NMeR]-NH2) |  |  |  |  |  |  |  |  |  |  | significantly inhibited | no sign of desensitisation | bias towards cAMP | failed to show any pERK activity | EC50 ([2]; read-out: Activity (EC50, nM) KOR): 31.1 nM; Log IC50 (KOR [5]): −5.71; IC50 (KOR [5]; read-out: IC50): 1950 nM; Ki (KOR [5]; read-out: Ki): 180 nM; half-life ([7]; in vivo): 0.398 h; clearance ([7]; in vivo): 5.7 mL/min/kg; Vd ([7]; in vivo): 0.4 L/kg; opioid-like adverse effects (e.g. respiratory depression, sedation) [7]: no sign of opioid-like adverse effects; Area under the curve (AUC) efficacy compared to U50488H [1]: significantly better efficacy than U50488H; Efficacy Index (Ie) relative to morphine [1]: statistically significantly greater Ie over morphine
5 | CC(C)C[C@H](NC(=O)[C@H](Cc1ccc(Cl)cc1)NC(=O)CN(C)C(=O)[C@@H](N)Cc1ccc(O)cc1)C(=O)N[C@@H](CCCNC(=N)N)C(=O)N[C@H](CCCNC(=N)N)C(=O)NCCCCCCCC(N)=O [SEQ ID NO. 24, NH2-Tyr-Sar-(4-Cl)Phe-Leu-Arg-DArg-C7H14-CONH2] (H-Y[Sar][Phe(4-Cl)]LR[dR][Aoc]-NH2) |  |  | > 10000 |  |  | > 10000 |  |  |  |  | significantly inhibited | modest desensitisation | bias towards cAMP | some influence over pERK induction | EC50 [2]: 3.87 nM; IC50 (KOR [5]): 72.6 nM; Ki (KOR [5]): 6.7 nM; half-life ([7]; plasma): 0.213 h; clearance ([7]; plasma): 26.3 mL/min/kg; Vd ([7]; plasma): 1.7 L/kg; opioid-like adverse effects (e.g. respiratory depression, sedation) [7]: No adverse effects were observed; Efficacy Index (Ie) relative to morphine [1]: statistically significantly greater Ie over morphine
6 | CC(C)C[C@@H](NC(=O)[C@@H](Cc1ccccc1)NC(=O)[C@H](N)Cc1ccccc1)C(=O)N[C@H](CCCCN)C(=O)N1CCC(N)(C(=O)O)CC1 [SEQ ID NO. 35, DPhe-DPhe-DLeu-DLys-Cap-CO2H, reference compound] | 25.93 | 34.61 | > 10000 | −5.72 | 3.27 | > 10000 | 0.37 | 8.07 | 10.8 | > 16.7 |  | significant reduction maximal effect | no bias either way | time and concentration dependent pERK expression | half-life at 100 µM [4]: 17.6 h
7 | CC(C)C[C@H](NC(=O)[C@H](Cc1ccccc1)NC(=O)CNC(=O)CNC(=O)[C@@H](N)Cc1ccc(O)cc1)C(=O)N[C@@H](CCCNC(=N)N)C(=O)N[C@@H](CCCNC(=N)N)C(=O)O [SEQ ID NO. 38, Tyr-Gly-Gly-Phe-Leu-Arg-Arg, reference compound] |  |  |  |  |  |  |  |  |  | > 16.7 |  | did not show any desensitisation |  |  | EC50 ([3]; read-out: Activity (EC50, nM) DOR): 870 nM; EC50 (Mu opioid receptor (MOR); read-out: Activity (EC50, nM) MOR): 3740 nM
